Data published in US10130611B2, “Use of benzo-heterocycle derivatives for preventing and treating cancer or for inhibiting cancer metastasis” (MEDICINAL BIOCONVERGENCE RESEARCH CENTER, priority 2009, dated 2018).

Experiments:
[1] = target: T1, interaction between KRS and laminin receptor (67LR) (Homo sapiens, UniProt Q15046); assay: Yeast two hybrid growth assay, LexA-KRS/B42-LR pair; assay type: cell-based
T1 construct: expressed in transfected cells; host or cells: yeast EGY/SH cells
Protocol: (§1) On the compound of the present invention obtained by screening a library of compounds, the extent of inhibition on the interaction between KRS and laminin receptor (67LR) was determined by a yeast two hybrid assay, as described below. KRS, LR, AIMP2, AIMP3 and MRS were cloned at LexA vector (clontech) and B42 vector (clontech) each so as to produce required vectors. From among the vectors, LexA-KRS vector and B42-LR vector were co-transformed into yeast EGY/SH cells, and then the yeast cells were diluted to an absorbance (540 nm wavelength) of 0.2 in galactose medium not containing uracil (Ura), histidine (His), tryptophane (Trp) and leucine (Leu), and placed in an amount of 200 u in a 96 well plate. 1 μl of each compound at a concentration of 10 mg/ml was placed in each well, incubated for 6 days, and the absorbance was measured at 540 nm. […] The inhibitory specificity of the selected compound was tested by using two different interaction pairs such as LexA-KRS/B42-AIMP2 and LexA-MRS/B42-AIMP3.
In order to determine if the compound of the present invention controls the interaction between KRS and laminin receptor, the present inventors determined the interaction between KRS and 67LR through treatment of the compound of the present invention.

[2] = target: T2, KRS-AIMP2 (Homo sapiens, UniProt Q15046); assay: Yeast two hybrid specificity test, LexA-KRS/B42-AIMP2 pair; assay type: cell-based; conditions: compound at 50 μg/ml, DMSO control 1.3204
T2 construct: expressed in transfected cells; host or cells: yeast (EGY/SH is stated for the KRS/LR pair)
T2 sequence (Q15046 whole entry): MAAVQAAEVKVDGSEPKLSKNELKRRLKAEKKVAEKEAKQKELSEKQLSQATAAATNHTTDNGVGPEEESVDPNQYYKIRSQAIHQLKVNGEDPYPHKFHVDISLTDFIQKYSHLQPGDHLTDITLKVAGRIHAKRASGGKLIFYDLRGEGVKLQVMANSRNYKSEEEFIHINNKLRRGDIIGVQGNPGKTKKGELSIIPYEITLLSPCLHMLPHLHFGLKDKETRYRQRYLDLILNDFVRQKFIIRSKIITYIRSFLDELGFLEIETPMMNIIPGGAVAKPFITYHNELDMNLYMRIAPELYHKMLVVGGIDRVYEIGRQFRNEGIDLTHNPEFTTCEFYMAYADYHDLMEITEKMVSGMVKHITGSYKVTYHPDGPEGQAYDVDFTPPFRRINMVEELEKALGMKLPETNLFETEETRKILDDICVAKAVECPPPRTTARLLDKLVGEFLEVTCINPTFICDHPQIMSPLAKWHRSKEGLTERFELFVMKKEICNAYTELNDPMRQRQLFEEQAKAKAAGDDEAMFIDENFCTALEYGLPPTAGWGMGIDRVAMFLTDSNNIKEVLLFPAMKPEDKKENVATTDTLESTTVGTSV
Protocol: as §1, with “LexA-MRS/B42-AIMP3. […]” for “LexA-MRS/B42-AIMP3.”

[3] = tested on: A549 cells; assay: Cell migration assay (transwell membrane); assay type: cell-based, human; conditions: KL1 in different amounts, 8 hours
Protocol: On MMP2 activity (FIG. 37) and cell migration (FIGS. 38 and 39), KL1-dose-dependent effect was measured. For the test on the cell migration, the cells were treated with KL1 for 8 hours. In FIG. 40, in order to see the effect of KL1 on protein synthesis of cells, A549 cells were treated with KL1 at indicated concentrations, and starved in methionine-free medium. Then, [^35S] methionine was added thereto for 2 hours. Then, the cells were incubated in complete medium for 4 hours, and the level of added methionine was measured by a scintillation counter. In FIG. 41, KL1-dose-dependent cytotoxicity was measured by using A549 cells. In FIG. 42, the effect of KL1 on cancer metastasis was measured according to the method as described above. In each group, 6 mice were included, and KL1 was abdominally injected for 3 weeks, in a dose of 30 mg/kg once a day. […] The metastasized tumor nodules over 1 mm in diameter were counted, and their average was calculated (left). […]
Cell migration was measured by using 24-well transwell chambers with polycarbonate membranes (8.0 μm pore size, Costar) as previously described (Park, S. G. et al. Human lysyl-tRNA synthetase is secreted to trigger pro-inflammatory response, Proc. Natl. Acad. Sci. USA 102, 6356-6361 (2005)). […] The migrated cells (attached to the lower face of the membrane) were counted at four randomly selected sites by a microscope (×20).

[4] = tested on: A549 cells; assay: Cell protein synthesis ([35S]methionine incorporation); assay type: cell-based, human; conditions: KL1 at indicated concentrations, [35S]methionine 2 hours
Protocol: On MMP2 activity (FIG. 37) and cell migration (FIGS. 38 and 39), KL1-dose-dependent effect was measured. For the test on the cell migration, the cells were treated with KL1 for 8 hours. In FIG. 40, in order to see the effect of KL1 on protein synthesis of cells, A549 cells were treated with KL1 at indicated concentrations, and starved in methionine-free medium. Then, [^35S] methionine was added thereto for 2 hours. Then, the cells were incubated in complete medium for 4 hours, and the level of added methionine was measured by a scintillation counter. In FIG. 41, KL1-dose-dependent cytotoxicity was measured by using A549 cells. In FIG. 42, the effect of KL1 on cancer metastasis was measured according to the method as described above. In each group, 6 mice were included, and KL1 was abdominally injected for 3 weeks, in a dose of 30 mg/kg once a day. Then, the mice were sacrificed. The metastasized tumor nodules over 1 mm in diameter were counted, and their average was calculated (left). The photograph of a representative lung is shown at the right side. […]
A549 cells were treated with the compound (2-[2-(4-methyl-benzoylimino)-benzothiazole-3-yl]-butyric acid, CAND-KL1 or KL1) represented by Formula 15, at indicated concentrations. […] They were lysed, and the radiation dose of lysed cells was measured by a scintillation counter.

[5] = tested on: A549 cells; assay: Cytotoxicity analysis (EZ-cytox); assay type: cell-based, human; conditions: KL1 at indicated concentrations, 24 hours
Protocol: 10^4 A549 cells were placed in a 96-well plate, and treated with the compound represented by Formula 15, at indicated concentrations for 24 hours. Then, EZ-cytox (Daeil Lab, Korea) compound was added in an amount of 10 μl to each well in accordance with the manufacturer's instruction, followed by cultivation for 2 hours. A microplate reader was used to measure the absorbance at 420 nm.

T1 sequence (Q15046 whole entry): as above

inhibition at 10000 µg/mL (stock) ([1]; growth inhibition of yeast EGY/SH cells with LexA-KRS/B42-LR vs control, 1 μl of 10 mg/ml compound per well, 6 days, absorbance 540 nm, read-out: Inhibition rate(%)): 52.1%
KRS-67LR (yeast growth, OD level) ([1]; yeast two hybrid pair KRS-67LR, compound at 50 μg/ml, DMSO control 0.4241): 0.2223
KRS-AIMP2 (yeast growth, OD level) [2]: 0.9497
Compound: CCC(C(=O)O)n1/c(=N/C(=O)c2ccc(C)cc2)sc2ccccc21 (stereo not drawn) [Compound of formula 15, 2-[2-(4-Methyl-benzoylimino)-benzothiazol-3-yl]-butyric acid]
cell migration [3]: inhibited
intracellular protein synthesis [4]: not influenced
viability [5]: not influenced
